Measurements taken from PMC6199744, “Development of Chemical Proteomics for the Folateome and Analysis of the Kinetoplastid Folateome” (ACS Infectious Diseases, 2018).

Test system: L. major lysate proteins
Experiment: Multitargeted bead mixture chemoproteomics, single concentration competition, proteome-wide
Format: binding

Q: `NCCOCCOCC(=O)Nc1nc2ncc(CNc3ccc(C(=O)NC(CCC(=O)O)C(=O)O)cc3)nc2c(=O)[nH]1` (stereo not shown) [compound 6] was tested. Which fold change (protein LMJF.35.0420 40S RIBOSOMAL PROTEIN S3A, PUTATIVE, vehicle control = 1) did it give?
A: 1.15

Q: What about the “fold change relative to vehicle control” value (protein LMJF.35.1220, SHORT CHAIN DEHYDROGENASE, PUTATIVE) of the same molecule?
A: 1.09

Q: What about the “fold change relative to vehicle control” value (protein LMJF.35.1380, MIT[…], BETA SUBUNIT, PUTATIVE) of the same molecule?
A: 1.08

Q: What about the “fold change vs vehicle control” value (protein LMJF.35.1830 HYPOTHETICAL PROTEIN, CONSERVED) of the same molecule?
A: 0.93

Q: What about the “fold change vs vehicle control” value (protein LMJF.35.3340 6-phosphogluconate dehydrogenase) of the same molecule?
A: 0.99

Q: What about the fold change (protein LMJF.35.3700 GIM5A PROTEIN, PUTATIVE,GLYCOSOMAL MEMBRANE PROTEIN, vehicle control = 1) of the same molecule?
A: 0.99

Q: What about the “fold change vs vehicle control” value (protein LMJF.35.3760 60S RIBOSOMAL PROTEIN L27A/L29, PUTATIVE) of the same molecule?
A: 0.97

Q: And the “fold change relative to vehicle control” value (protein LMJF.35.3840, […] 2 SUBUNIT, PUTATIVE)?
A: 1.14

Q: What about the “fold change vs vehicle control” value (protein LMJF.35.3860 T-COMPLEX PROTEIN 1, ETA SUBUNIT, PUTATIVE) of the same molecule?
A: 1

Q: And the fold change (protein LMJF.35.4420 MIT[…] TRANSPORTER, PUTATIVE, vehicle control = 1)?
A: 1.05

Q: What about the “fold change relative to vehicle control” value (protein LMJF.35.4880, HY[…], CONSERVED (TPR repeat, putative)) of the same molecule?
A: 1.34

Q: What about the “fold change relative to vehicle control” value (protein LMJF.35.5330, ISOPENTENYL-D[…]-ISOMERASE, PUTATIVE) of the same molecule?
A: 1.14

Q: What about the “fold change relative to vehicle control” value (protein LMJF.36.0070, STRESS-INDUCIBLE PROTEIN STI1 HOMOLOG) of the same molecule?
A: 1.56

Q: And the fold change (protein LMJF.36.0480 HYPOTHETICAL PROTEIN, CONSERVED, vehicle control = 1)?
A: 0.98

Q: What about the “fold change vs vehicle control” value (protein LMJF.36.0620 HYPOTHETICAL PROTEIN, CONSERVED) of the same molecule?
A: 0.81

Q: And the “fold change vs vehicle control” value (protein LMJF.36.0930 40S RIBOSOMAL PROTEIN S18, PUTATIVE)?
A: 1.15

Q: What about the “fold change vs vehicle control” value (protein LMJF.36.0990 40S RIBOSOMAL PROTEIN S10, PUTATIVE) of the same molecule?
A: 0.99

Q: What about the fold change (protein LMJF.36.1140 SHORT CHAIN 3-HYDROXYACYL-COA DEHYDROGENASE, PUTATIVE, vehicle control = 1) of the same molecule?
A: 0.82

Q: What about the “fold change relative to vehicle control” value (protein LMJF.36.1260, FRUCTOSE-1,6-BI[…]) of the same molecule?
A: 1.05

Q: What about the fold change (protein LMJF.36.1340 N-ACETYLTRANSFERASE SUBUNIT NAT1, PUTATIVE, vehicle control = 1) of the same molecule?
A: 0.91

Q: And the “fold change vs vehicle control” value (protein LMJF.36.1650 […] 5 SUBUNIT, PUTATIVE)?
A: 1.03

Q: What about the “fold change relative to vehicle control” value (protein LMJF.36.2380, STEROL 24-C-METHYLTRANSFERASE, PUTATIVE) of the same molecule?
A: 1

Q: What about the “fold change relative to vehicle control” value (protein LMJF.36.2660, DIHYDROLIPOAMIDE ACETYLTRANSFERASE PRECURSOR, PUTATIVE) of the same molecule?
A: 1

Q: And the “fold change vs vehicle control” value (protein LMJF.36.2950 SUCCINYL-COA LIGASE GDP-FORMING] BETA-CHAIN, PUTATIVE)?
A: 1.06

Q: What about the “fold change vs vehicle control” value (protein LMJF.36.3210 14-3-3 PROTEIN-LIKE PROTEIN) of the same molecule?
A: 0.97

Q: And the “fold change vs vehicle control” value (protein LMJF.36.3410 SHORT CHAIN DEHYDROGENASE-LIKE PROTEIN)?
A: 1.22

Q: And the fold change (protein LMJF.36.3460 HYPOTHETICAL PROTEIN, CONSERVED (NIPSNAP, putative), vehicle control = 1)?
A: 1.1

Q: And the fold change (protein LMJF.36.3580 HYPOTHETICAL PROTEIN, CONSERVED (Protein of unknown function (DUF2009), putative), vehicle control = 1)?
A: 0.92

Q: What about the fold change (protein LMJF.36.3750 40S RIBOSOMAL PROTEIN S27-1, PUTATIVE, vehicle control = 1) of the same molecule?
A: 0.73

Q: And the “fold change vs vehicle control” value (protein LMJF.36.5010 40S RIBOSOMAL PROTEIN SA, PUTATIVE)?
A: 1.07

Q: And the “fold change vs vehicle control” value (protein LMJF.36.5130 HY[…], CONSERVED)?
A: 1.09

Q: And the “fold change vs vehicle control” value (protein LMJF.36.5150 HY[…], CONSERVED)?
A: 1.01

Q: And the “fold change relative to vehicle control” value (protein LMJF.36.5380, NADH DEHYDROGENASE, PUTATIVE)?
A: 0.94

Q: And the “fold change vs vehicle control” value (protein LMJF.36.5390 PHOSPHORIBOSYLPYROPHOSPHATE SYNTHETASE, PUTATIVE)?
A: 0.99

Q: What about the “fold change vs vehicle control” value (protein LMJF.36.5620 ISOLEUCYL-TRNA SYNTHETASE, PUTATIVE) of the same molecule?
A: 1.03

Q: And the fold change (protein LMJF.36.6430 PROTEIN TRANSPORT PROTEIN SEC23-LIKE PROTEIN, vehicle control = 1)?
A: 0.83

Q: And the “fold change vs vehicle control” value (protein LMJF.36.6760 HY[…], CONSERVED)?
A: 1.01

Q: What about the “fold change relative to vehicle control” value (protein LMJF.[…], MIT[…] BETA SUBUNIT, PUTATIVE) of the same molecule?
A: 0.95

Q: What about the “fold change relative to vehicle control” value (protein LMJF.[…], POLY(A) EXPORT PROTEIN, PUTATIVE) of the same molecule?
A: 1.14

Q: And the fold change (vs vehicle control, protein LINJ.20.0630 CYTIDINE TR[…], PUTATIVE,CTP SYNTHASE, PUTATIVE)?
A: 1.07

Q: What about the fold change (vs vehicle control, protein LINJ.20.1390 COATOMER BETA SUBUNIT, PUTATIVE) of the same molecule?
A: 0.82

Q: What about the fold change (vs vehicle control, protein LMJF.05.1140 VACUOLAR ATPASE SUBUNIT-LIKE PROTEIN) of the same molecule?
A: 0.91

Q: What about the fold change (vs vehicle control, protein LMJF.07.1090 DELTA-5 FATTY ACID DESATURASE) of the same molecule?
A: 1

Q: And the fold change (vs vehicle control, protein LMJF.09.0220 HYPOTHETICAL PROTEIN, CONSERVED)?
A: 0.97

Q: And the fold change (vs vehicle control, protein LMJF.11.1030 HYPOTHETICAL PROTEIN, CONSERVED)?
A: 0.98

Q: What about the fold change (vs vehicle control, protein LMJF.14.0640 FATTY ACID ELONGASE, PUTATIVE) of the same molecule?
A: 0.92

Q: And the fold change (vs vehicle control, protein LMJF.14.0705 FATTY ACID ELONGASE, PUTATIVE)?
A: 0.88

Q: What about the fold change (vs vehicle control, protein LMJF.14.1120 KINESIN K39, PUTATIVE) of the same molecule?
A: 0.71

Q: And the fold change (vs vehicle control, protein LMJF.16.1610 PROHIBITIN)?
A: 1.16

Q: What about the fold change (vs vehicle control, protein LMJF.17.0010 HYPOTHETICAL PROTEIN, CONSERVED) of the same molecule?
A: 0.97

Q: What about the fold change (vs vehicle control, protein LMJF.18.1130 RAS-RELATED PROTEIN RAB-5, PUTATIVE) of the same molecule?
A: 0.75

Q: And the fold change (vs vehicle control, protein LMJF.19.1420 CYSTEINE PEPTIDASE A (CPA))?
A: 0.86

Q: And the fold change (vs vehicle control, protein LMJF.21.0280 HY[…], CONSERVED)?
A: 0.84

Q: What about the fold change (vs vehicle control, protein LMJF.22.1560 40S RIBOSOMAL PROTEIN L14, PUTATIVE) of the same molecule?
A: 0.78

Q: And the fold change (vs vehicle control, protein LMJF.23.1220 T-COMPLEX PROTEIN 1, GAMMA SUBUNIT, PUTATIVE)?
A: 1.06

Q: And the fold change (vs vehicle control, protein LMJF.24.0370 ASPARTATE AMINOTRANSFERASE, PUTATIVE)?
A: 1.14

Q: And the fold change (vs vehicle control, protein LMJF.25.1770 ENOYL-COA REDUCTASE, PUTATIVE)?
A: 1.08

Q: And the fold change (vs vehicle control, protein LMJF.26.0170 60S RIBOSOMAL PROTEIN L7, PUTATIVE)?
A: 0.82

Q: And the fold change (vs vehicle control, protein LMJF.26.1550 TRI[…] ALPHA SUBUNIT, MIT[…]-LIKE PROTEIN)?
A: 1.11

Q: What about the fold change (vs vehicle control, protein LMJF.26.1610 PROLINE OXIDASE, MIT[…]-LIKE PROTEIN) of the same molecule?
A: 1.02

Q: And the fold change (vs vehicle control, protein LMJF.28.1950 X-PRO, DIPEPTIDYL-PEPTIDASE,SERINE PEPTIDASE, CLAN SC, FAMILY S15, PUTATIVE)?
A: 0.94

Q: And the fold change (vs vehicle control, protein LMJF.31.1070 BIOTIN/LIPOATE PROTEIN LIGASE-LIKE PROTEIN)?
A: 0.89

Q: What about the fold change (vs vehicle control, protein LMJF.32.1370 HYPOTHETICAL PROTEIN, CONSERVED) of the same molecule?
A: 0.94

Q: What about the fold change (vs vehicle control, protein LMJF.34.0490 IMPORTIN BETA-1 SUBUNIT, PUTATIVE) of the same molecule?
A: 0.96

Q: And the fold change (vs vehicle control, protein LMJF.34.4060 UBIQUITIN HYDROLASE, PUTATIVE,CYSTEINE PEPTIDASE, CLAN CA, FAMILY C19, PUTATIVE)?
A: 0.85

Q: What about the fold change (vs vehicle control, protein LMJF.36.1600 […] 1 SUBUNIT, PUTATIVE) of the same molecule?
A: 0.96

Q: And the fold change (vs vehicle control, protein LMJF.[…] RIBOSOMAL PROTEIN S7, PUTATIVE)?
A: 1.2
